Experimental data as given in ChEMBL document CHEMBL1137619, “Synthesis, structure-activity relationship and in vivo antiinflammatory efficacy of substituted dipiperidines as CCR2 antagonists” (J Med Chem, 2007).

Experiments:
Type in all cases: ADME, organism-based
Details in all cases: in vivo
[1] = Bioavailability in rat at 10 mg/kg, po
[2] = Bioavailability in rat at 10 mg/kg, ip
[3] = Half life in rat at 10 mg/kg, po; set-up: dose 10 mg/kg, route oral

bioavailability [1]: 15%
bioavailability [2]: 100%
half-life [3]: 7 h
SMILES: O=C(O)[C@H](C1CCN(C(=O)/C=C/c2cc(F)c(F)c(F)c2)CC1)N1CCC(c2c[nH]c3ccccc23)CC1
